Reference: ChEMBL document CHEMBL3885861, “Open TG-GATES”

Species: Rattus norvegicus
Test: Open TG-GATES - Regimen: Single
Type: toxicity, organism-based, Sprague-Dawley
Set-up: regimen Single, gender Male, age 6 weeks
Conditions: in vivo, po, 1000 mg/kg, route gavage, dose level High; for APTT / Bas / Eos / Fbg / Hb / Ht / Lym / MCH / MCHC / MCV / Mono / Neu / PT / Plat / RBC / Ret / WBC: tissue Blood; for KIDNEY_L / KIDNEY_R / KIDNEY_TOTAL: tissue Kidney; for LIVER: tissue Liver; for A/G / ALP / ALT / AST / BUN / CRE / Ca / Cl / DBIL / GLC / IP / K / LDH / Na / PL / RALB / TBIL / TC / TG / TP / gamma-GTP: tissue Plasma

**Q.** What does the source list for `CCCCNC(=O)NS(=O)(=O)c1ccc(C)cc1` [TOLBUTAMIDE]?
**A.** TERMINAL_BW (3 h): 206.8 g; APTT (3 h): 17 s; Bas (3 h): 0%; Eos (3 h): 0.8%; Fbg (3 h): 292.2 mg/dL; Hb (3 h): 14.1 g/dL; Ht (3 h): 43.1%; Lym (3 h): 76.8%; MCH (3 h): 21 pg; MCHC (3 h): 32.6%; MCV (3 h): 64.4 fL; Mono (3 h): 3%; Neu (3 h): 18.6%; PT (3 h): 12.9 s; Plat (3 h): 111.8 x10_4/uL; RBC (3 h): 669.4 x10_4/ul; Ret (3 h): 9%; WBC (3 h): 54.6 x10_2/uL; KIDNEY_L (3 h): 0.9 g; KIDNEY_R (3 h): 0.9 g; KIDNEY_TOTAL (3 h): 1.8 g; LIVER (3 h): 9.4 g; A/G (3 h): 0.9; ALP (3 h): 1359.4 IU/L; ALT (3 h): 46.8 IU/L; AST (3 h): 77.6 IU/L; BUN (3 h): 12.4 mg/dL; CRE (3 h): 0.2 mg/dL; Ca (3 h): 10.9 mg/dL; Cl (3 h): 105.8 meq/L; DBIL (3 h): 0.004 mg/dL; GLC (3 h): 152 mg/dL; IP (3 h): 9.3 mg/dL; K (3 h): 4 meq/L; LDH (3 h): 56.4 IU/L; Na (3 h): 140.6 meq/L; PL (3 h): 138.2 mg/dL; RALB (3 h): 2.7 g/dL; TBIL (3 h): 0.05 mg/dL; TC (3 h): 73.6 mg/dL; TG (3 h): 75 mg/dL; TP (3 h): 5.6 g/dL; gamma-GTP (3 h): 1 IU/L; TERMINAL_BW (6 h): 203.1 g; APTT (6 h): 16.9 s; Bas (6 h): 0%; Eos (6 h): 1%; Fbg (6 h): 321.6 mg/dL; Hb (6 h): 14.1 g/dL; Ht (6 h): 43%; Lym (6 h): 72%; MCH (6 h): 21.4 pg; MCHC (6 h): 32.7%; MCV (6 h): 65.3 fL; Mono (6 h): 3.4%; Neu (6 h): 23.6%; PT (6 h): 12.8 s; Plat (6 h): 120.2 x10_4/uL; RBC (6 h): 659.8 x10_4/ul; Ret (6 h): 8.9%; WBC (6 h): 69.4 x10_2/uL; KIDNEY_L (6 h): 0.9 g; KIDNEY_R (6 h): 0.9 g; KIDNEY_TOTAL (6 h): 1.8 g; LIVER (6 h): 8.5 g; A/G (6 h): 0.9; ALP (6 h): 1301 IU/L; ALT (6 h): 39 IU/L; AST (6 h): 70.6 IU/L; BUN (6 h): 12.6 mg/dL; CRE (6 h): 0.2 mg/dL; Ca (6 h): 11 mg/dL; Cl (6 h): 105.2 meq/L; DBIL (6 h): 0.008 mg/dL; GLC (6 h): 140 mg/dL; IP (6 h): 9.8 mg/dL; K (6 h): 3.9 meq/L; LDH (6 h): 56 IU/L; Na (6 h): 140.6 meq/L; PL (6 h): 144.4 mg/dL; RALB (6 h): 2.7 g/dL; TBIL (6 h): 0.054 mg/dL; TC (6 h): 79.6 mg/dL; TG (6 h): 64.2 mg/dL; TP (6 h): 5.7 g/dL; gamma-GTP (6 h): 1.2 IU/L; TERMINAL_BW (9 h): 197.9 g; APTT (9 h): 17.7 s; Bas (9 h): 0.2%; Eos (9 h): 1%; Fbg (9 h): 332.8 mg/dL; Hb (9 h): 14.4 g/dL; Ht (9 h): 43.7%; Lym (9 h): 75%; MCH (9 h): 21 pg; MCHC (9 h): 33.1%; MCV (9 h): 63.4 fL; Mono (9 h): 1.8%; Neu (9 h): 22%; PT (9 h): 13.1 s; Plat (9 h): 127.4 x10_4/uL; RBC (9 h): 689.4 x10_4/ul; Ret (9 h): 8.2%; WBC (9 h): 56.7 x10_2/uL; KIDNEY_L (9 h): 0.9 g; KIDNEY_R (9 h): 0.9 g; KIDNEY_TOTAL (9 h): 1.9 g; LIVER (9 h): 7.8 g; A/G (9 h): 0.9; ALP (9 h): 1554.6 IU/L; ALT (9 h): 38.8 IU/L; AST (9 h): 69.8 IU/L; BUN (9 h): 11.2 mg/dL; CRE (9 h): 0.2 mg/dL; Ca (9 h): 10.7 mg/dL; Cl (9 h): 106 meq/L; DBIL (9 h): 0.006 mg/dL; GLC (9 h): 125.2 mg/dL; IP (9 h): 10.4 mg/dL; K (9 h): 3.9 meq/L; LDH (9 h): 53.6 IU/L; Na (9 h): 141.4 meq/L; PL (9 h): 127 mg/dL; RALB (9 h): 2.7 g/dL; TBIL (9 h): 0.056 mg/dL; TC (9 h): 66.2 mg/dL; TG (9 h): 44.2 mg/dL; TP (9 h): 5.8 g/dL; gamma-GTP (9 h): 1 IU/L; TERMINAL_BW (24 h): 213.9 g; APTT (24 h): 16.6 s; Bas (24 h): 0%; Eos (24 h): 1%; Fbg (24 h): 274 mg/dL; Hb (24 h): 13.3 g/dL; Ht (24 h): 41.1%; Lym (24 h): 80%; MCH (24 h): 21 pg; MCHC (24 h): 32.5%; MCV (24 h): 64.4 fL; Mono (24 h): 3%; Neu (24 h): 15.6%; PT (24 h): 13.4 s; Plat (24 h): 117.8 x10_4/uL; RBC (24 h): 637.8 x10_4/ul; Ret (24 h): 7.3%; WBC (24 h): 83.8 x10_2/uL; KIDNEY_L (24 h): 0.9 g; KIDNEY_R (24 h): 0.9 g; KIDNEY_TOTAL (24 h): 1.8 g; LIVER (24 h): 9.4 g; A/G (24 h): 0.9; ALP (24 h): 1517.2 IU/L; ALT (24 h): 44.2 IU/L; AST (24 h): 75.4 IU/L; BUN (24 h): 15.4 mg/dL; CRE (24 h): 0.2 mg/dL; Ca (24 h): 10.9 mg/dL; Cl (24 h): 106.6 meq/L; DBIL (24 h): 0.006 mg/dL; GLC (24 h): 201.4 mg/dL; IP (24 h): 8.4 mg/dL; K (24 h): 3.9 meq/L; LDH (24 h): 73.4 IU/L; Na (24 h): 141.6 meq/L; PL (24 h): 136.6 mg/dL; RALB (24 h): 2.5 g/dL; TBIL (24 h): 0.058 mg/dL; TC (24 h): 77.2 mg/dL; TG (24 h): 72.2 mg/dL; TP (24 h): 5.4 g/dL; gamma-GTP (24 h): 1 IU/L
